Measured values as given in patent US20140030289A1, “COMPOSITIONS COMPRISING BETA-CARYOPHYLLENE AND METHODS OF UTILIZING THE SAME” (priority 2011, published 2014).

Columns and labels:
[1] = test system: BS-24-1: mouse lymphoma cell; assay: Cell death / anti-proliferative assay (MTT/XTT) in BS-24-1 cells; type: cell-based; conditions: BS-24-1, 4.8e^−4 μM, 2 h
Protocol: (§1) The following cell lines were used in this study: (1) BS-24-1: mouse lymphoma cell; (2) MoFir: Epstein-Barr virus transformed human B lymphocytes generated in the laboratory by transformation of human B cell from an anonymous donor (see below); (3) FB: normal human skin fibroblasts.
(§2) Cell death was assessed by incubation of cells with tetrazolium salt XTT. The production of formazan can be monitored using an ELISA reader at a wavelength of 450 nm. Cytotoxicity in compound-treated culture was expressed as follows: % survival=100×(absorbance of compound-treated cell/absorbance of ethanol-treated cells).
(§3) In order to investigate whether C. gikadensis extracts had anti-proliferative effects against tumor cell lines, an MTT (3-(4,5-Dimethylthiazol-2-yl)-2,5-diphenyltetrazolium bromide) assay was used. The effect of this extract was assessed in mouse (BS-24-1) and human (MoFir) cell lines using ethanol (EtOH)-based stem extracts. The concentration of cells was 1.0×10^6/mL.

[2] = test system: MoFir: Epstein-Barr virus transformed human B lymphocytes; assay: Cell death / anti-proliferative assay (MTT/XTT) in MoFir cells; type: cell-based; conditions: 4.8e^−4 μM, 2 h
Protocol: as §1
To establish the MoFir cells, B cells from whole blood were prepared by Ficoll -Hypaque density gradient centrifugation. The cells were infected with the B95-8 strain of Epstein-Barr virus. RPMI medium (Biological Industries Beit Haemek) was used for cell culture. The EBV B lymphocyte cell line was maintained in RPMI supplemented with 10% FBS, 100 U/mL penicillin and […] streptomycin. The culture was maintained at 37° C. in 5% CO2 atmosphere. […]
as §2
as §3, with “The concentration of cells was 1.0×10^6/mL.” left out

caspase-3 [3] = assay: Caspase-3 cellular activity assay, BS-24-1 cells; type: cell-based, mouse
caspase-3 [4] = assay: Caspase-3 cellular activity assay, MoFir cells; type: cell-based, human
Protocol: FIG. 4. is a bar graph showing the apoptogenic effects of β-Caryophyllene on two tumor cell lines. Enzymatic activity of different cell lines incubated with β-Caryophyllene (2.4e^−4 μM) for 2 h. X axis represents the time of the enzymatic reaction in vitro in minutes.
FIG. 5. is a bar graph showing the apoptogenic effects of β-Caryophyllene on two tumor cell lines. […] Measurements were taken following 1020 min of enzymatic reaction in vitro. Pre-incubation with caspase-3 inhibitor (DEVD-CHO) eliminated any development of caspase-3 activity.
Caspase-3 cellular activity assay was carried out according to the manufacturer's instructions. For measuring specific inhibition by Ac-DEVD-CHO, cell extracts were pre-incubated with the inhibitor (0.05 μM) for 10 minutes before the addition of the substrate. […] Cellular extracts were prepared and then caspase-3 activity was measured.

BS-24-1 cells = assay: DNA ladder analysis (apoptosis), BS-24-1 cells; type: cell-based, mouse; conditions: BS-24-1, 2-h treatment
Protocol: FIG. 6. is a gel micrograph showing the DNA ladder effect (induction of apoptosis) of different compositions. BS-24-1 cells (1,000,000/mL) were incubated with C. gileadensis stem and leaf extracts (6 μl/mL) for 17 h. DNA was separated and analyzed on agarose gel. Lanes 1-7 and 11, H2O based stem extract. Lanes 8-10, H2O based leaf extract. Lanes 12-18 and 22, ethanol based stem extract. Lanes 19-21, ethanol based leaf extract. Lanes 23 and 24 Control cells treated with ethanol (0.05%) and water.
FIG. 8. is a gel micrograph showing the DNA ladder effect (induction of apoptosis) of different compositions. BS-24-1 cells were incubated with C. gileadensis essential oil for 24 h. DNA was separated and analyzed on agarose gel. Lane 1, untreated cells with ethanol (0.05%) alone. Lane 2, cells incubation with 0.625 μl/mL essential oil. Lane 3, cells incubation with 1.25 μl/mL essential oil.
FIG. 9. is a gel micrograph showing the DNA ladder effect (induction of apoptosis) of β-Caryophyllene. Fragmentation of DNA in the presence of β-Caryophyllene. BS-24-1 cells were incubated in the presence of β-Caryophyllene in three different concentrations and two incubation time Lane 1, untreated cells with ethanol (0.05%) alone. Lane 2, cells incubated for 24 h with […] Lane 3, cells incubated for 2 h with 9.6 μM β-caryophyllene. […]

[5] = test system: FB: normal human skin fibroblasts; assay: DNA ladder analysis (apoptosis), normal FB cells; type: cell-based; conditions: summary statements
Protocol: FIG. 7. is a gel micrograph showing the DNA ladder effect (induction of apoptosis) of different compositions. MoFir and normal FB cells were incubated with C. gileadensis extract (2.5 μl/mL) for 24 h. DNA was separated and analyzed on agarose gel. Lane 1 and 2, ethanol based stem extract Lane 3-5, ethanol based leaf extract. Lane 6 control cells treated with ethanol (0.05%).
DNA ladder analysis was performed as previously described Ofir R. et al., (1999) (Ofir R, Zhang L-, Adams J M. Interference with gene expression induces rapid apoptosisin p53-null T lymphoma cells. Cell Death and Differentiation 1999; 6: 1216-1221).

[6] = test system: EBV-producing B95-8 cells; assay: Survival of EBV-producing B95-8 cells; type: cell-based; conditions: increasing concentration
Excerpt: Epstein-Barr virus strain B95-8 can immortalize human B lymphocytes. B95-8 is a cell line that produces Epstein-Barr virus (EBV).

Topoisomerase I = target: T1, Topoisomerase I (Homo sapiens, UniProt P11387); assay: Topoisomerase I activity; type: biochemical
T1 sequence (P11387 1-765): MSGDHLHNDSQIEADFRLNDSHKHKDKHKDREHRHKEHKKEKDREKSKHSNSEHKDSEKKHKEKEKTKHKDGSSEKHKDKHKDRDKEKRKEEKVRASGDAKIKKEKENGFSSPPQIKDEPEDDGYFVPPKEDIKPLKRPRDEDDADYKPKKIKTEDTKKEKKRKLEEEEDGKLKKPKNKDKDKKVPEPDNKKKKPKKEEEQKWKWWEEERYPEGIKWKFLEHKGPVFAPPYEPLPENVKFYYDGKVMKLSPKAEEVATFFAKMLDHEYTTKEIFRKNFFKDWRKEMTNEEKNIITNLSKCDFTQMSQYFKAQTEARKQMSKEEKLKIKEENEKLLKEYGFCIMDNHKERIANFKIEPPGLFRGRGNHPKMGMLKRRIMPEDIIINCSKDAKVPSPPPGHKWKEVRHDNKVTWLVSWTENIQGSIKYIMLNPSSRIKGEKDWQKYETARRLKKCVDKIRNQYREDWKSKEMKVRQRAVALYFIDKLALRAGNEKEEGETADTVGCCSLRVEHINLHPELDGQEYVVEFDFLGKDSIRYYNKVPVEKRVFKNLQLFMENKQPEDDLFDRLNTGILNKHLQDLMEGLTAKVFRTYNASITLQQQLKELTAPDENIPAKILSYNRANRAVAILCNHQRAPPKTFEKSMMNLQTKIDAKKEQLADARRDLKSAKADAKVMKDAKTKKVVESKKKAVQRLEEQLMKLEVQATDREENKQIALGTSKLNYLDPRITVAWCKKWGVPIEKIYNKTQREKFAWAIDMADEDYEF
Excerpt: Topoisomerase I introduces a nick in the DNA backbone allowing the rotation of one DNA strand around the second DNA strand. The DNA break is extremely transient and is re-ligated almost immediately. When an inhibitor of Topoisomerase I is present, it binds to the Topoisomerase I-nicked DNA complex or to the Topoisomerase I itself and this prevents the re-ligation of the nicked strand or the initial nick and rotation, respectively. Topoisomerase I and II activities are required for Epstein-Barr Virus replication.

Epstein-Barr virus = assay: In vivo EBV animal model (humanized mouse or rabbit); conditions: 5.0, 10 or 20 mg/kg, 4 consecutive days, i.p. or within food or drinking water
Protocol: Studies evaluating the effect of C. gileadensis extract and β-caryophyllene in an in vivo animal model are performed using the humanized mouse animal model described in Sato et al., 2011 (“A novel animal model of Epstein-Barr virus-associated hemophagocytic lymphohistiocytosis in humanized mice” Blood, 2011 May 26; 117(21):5663-73, incorporated herein by reference in its entirety) or using the rabbit model described in Takashima, 2008 (“A new animal model for primary and persistent Epstein-Barr virus infection: human EBV-infected rabbit characteristics determined using sequential imaging and pathological analysis” J Med. Virol. 2008 March; 80(3):455-66, incorporated herein by reference in its entirety). C. gileadensis extract and β-caryophyllene are supplied in balanced salt solution containing 12% Tween 80 (pH 7.4) and diluted immediately before use in appropriate concentrations. Doses of 5.0, 10 or 20 mg/kg are administered for 4 consecutive days to control and EBV groups (eight animals/group) by i.p. injection of 0.1 ml per mouse or within the food or drinking water. Both C. gileadensis extract and β-caryophyllene are found to prevent EBV-induced death, viremia, leukocytosis, IFN-γ cytokinenemia, normocytic anemia, and thrombocytopenia, and increase survival time

[7] = target: cannabinoid receptor type-2 (Homo sapiens, UniProt P34972); conditions: background statement; cited from earlier work
[8] = target: cannabinoid receptor type-1 (CB 1) (Homo sapiens, UniProt P21554); conditions: background statement; cited from earlier work
cannabinoid receptor type-1 (CB 1), sequence (P21554 whole entry, species assumed): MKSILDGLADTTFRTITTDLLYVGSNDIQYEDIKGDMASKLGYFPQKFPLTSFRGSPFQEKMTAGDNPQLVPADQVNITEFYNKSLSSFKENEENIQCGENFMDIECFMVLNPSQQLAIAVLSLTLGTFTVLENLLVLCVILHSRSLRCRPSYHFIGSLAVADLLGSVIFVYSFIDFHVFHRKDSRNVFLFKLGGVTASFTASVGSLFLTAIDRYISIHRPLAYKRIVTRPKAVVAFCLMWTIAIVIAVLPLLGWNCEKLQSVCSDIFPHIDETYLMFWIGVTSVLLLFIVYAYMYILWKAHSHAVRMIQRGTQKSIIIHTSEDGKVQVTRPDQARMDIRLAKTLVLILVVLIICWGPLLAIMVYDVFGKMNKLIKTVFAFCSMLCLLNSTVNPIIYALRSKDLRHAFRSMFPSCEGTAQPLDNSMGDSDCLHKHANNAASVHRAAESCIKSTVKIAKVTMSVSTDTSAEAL

cannabinoid receptor type-2, sequence (P34972 whole entry): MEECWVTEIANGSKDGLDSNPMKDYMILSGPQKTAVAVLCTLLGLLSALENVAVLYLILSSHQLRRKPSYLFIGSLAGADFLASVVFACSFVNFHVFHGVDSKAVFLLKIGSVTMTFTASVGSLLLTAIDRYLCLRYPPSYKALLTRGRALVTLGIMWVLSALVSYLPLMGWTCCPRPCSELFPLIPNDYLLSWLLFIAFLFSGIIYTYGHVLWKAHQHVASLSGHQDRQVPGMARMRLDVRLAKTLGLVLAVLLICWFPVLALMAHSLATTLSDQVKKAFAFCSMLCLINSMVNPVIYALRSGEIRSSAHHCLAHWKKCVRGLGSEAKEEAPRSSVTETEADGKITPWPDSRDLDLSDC

**Q.** With `C=C1CC/C=C(\C)CC[C@@H]2[C@@H]1CC2(C)C` [Beta-caryophyllene, trans-(1R,9S)-8-Methylene-4,11,11-trimethylbicyclo[7.2.0]undec-4-ene] as the compound, how does the cell killing [1] read?
**A.** 85-90%

**Q.** What about the cell killing [2] of the same compound?
**A.** 85-90%

**Q.** And the “enzymatic activity of caspase-3” value (caspase-3 [3]; BS-24-1, 2.4e^−4 μM, 4 h incubation)?
**A.** activation of the enzymatic activity of caspase-3

**Q.** What about the “induction of caspase-3 enzymatic activity compared to reference compounds STS and citral” value (caspase-3 [3]; data not shown, cell line not stated) of the same compound?
**A.** stronger than both

**Q.** And the “enzymatic activity of caspase-3” value (caspase-3 [4]; 2.4e^−4 μM)?
**A.** activation of the enzymatic activity of caspase-3

**Q.** And the “DNA ladder (DNA fragmentation)” value (BS-24-1 cells)?
**A.** repeated

**Q.** And the “apoptosis induction in normal cells (FB)” value [5]?
**A.** not in normal cells

**Q.** What about the “survival of EBV-producing B95-8 cells” value [6] of the same compound?
**A.** decreases the survival

**Q.** And the “activity of Topoisomerase I” value (Topoisomerase I)?
**A.** inhibits

**Q.** What about the “EBV-induced death, viremia, leukocytosis, IFN-γ cytokinenemia, normocytic anemia, and thrombocytopenia” value (Epstein-Barr virus) of the same compound?
**A.** prevent

**Q.** What about the survival time (Epstein-Barr virus) of the same compound?
**A.** increase

**Q.** And the “binding to cannabinoid receptor type-2” value [7]?
**A.** selectively bind

**Q.** What about the “binding to cannabinoid receptor type-1 (CB 1)” value [8] of the same compound?
**A.** does not bind

**Q.** What does the source list for Ac-DEVD-CHO [reference compound]?
**A.** beta-caryophyllene induced increase of caspase-3 activity after inhibitor pretreatment (caspase-3 [3]; BS-24-1, pretreatment with inhibitor (0.05 μM, 10 minutes)): blocked; beta-caryophyllene induced increase of caspase-3 activity after inhibitor pretreatment (caspase-3 [4]; pretreatment with inhibitor (0.05 μM, 10 minutes)): blocked
